Assays:
Experiment in all cases: KinaseProfiler Assay
ARK5(h) = target: T1, ARK5(h) (Homo sapiens, UniProt O60285)
T1 sequence (O60285 1-661): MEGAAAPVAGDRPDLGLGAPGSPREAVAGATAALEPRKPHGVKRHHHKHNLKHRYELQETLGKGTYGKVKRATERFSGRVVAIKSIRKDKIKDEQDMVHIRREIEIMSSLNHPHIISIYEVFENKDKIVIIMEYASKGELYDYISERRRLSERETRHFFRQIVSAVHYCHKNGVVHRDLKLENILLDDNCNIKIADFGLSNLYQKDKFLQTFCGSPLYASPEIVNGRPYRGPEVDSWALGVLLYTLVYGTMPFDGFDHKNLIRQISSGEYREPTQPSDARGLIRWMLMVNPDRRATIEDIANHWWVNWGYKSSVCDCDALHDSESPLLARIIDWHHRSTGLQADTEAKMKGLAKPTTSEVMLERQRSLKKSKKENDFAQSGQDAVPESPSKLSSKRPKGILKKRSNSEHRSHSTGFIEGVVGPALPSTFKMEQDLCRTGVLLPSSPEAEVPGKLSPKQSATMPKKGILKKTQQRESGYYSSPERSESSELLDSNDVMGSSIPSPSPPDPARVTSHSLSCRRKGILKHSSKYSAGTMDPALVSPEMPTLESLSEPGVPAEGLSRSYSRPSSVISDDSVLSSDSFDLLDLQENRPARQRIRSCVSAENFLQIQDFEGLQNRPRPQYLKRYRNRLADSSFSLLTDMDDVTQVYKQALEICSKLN

Haspin(h) = target: T2, Haspin(h) (Homo sapiens, UniProt Q8TF76)
T2 sequence (Q8TF76 1-798): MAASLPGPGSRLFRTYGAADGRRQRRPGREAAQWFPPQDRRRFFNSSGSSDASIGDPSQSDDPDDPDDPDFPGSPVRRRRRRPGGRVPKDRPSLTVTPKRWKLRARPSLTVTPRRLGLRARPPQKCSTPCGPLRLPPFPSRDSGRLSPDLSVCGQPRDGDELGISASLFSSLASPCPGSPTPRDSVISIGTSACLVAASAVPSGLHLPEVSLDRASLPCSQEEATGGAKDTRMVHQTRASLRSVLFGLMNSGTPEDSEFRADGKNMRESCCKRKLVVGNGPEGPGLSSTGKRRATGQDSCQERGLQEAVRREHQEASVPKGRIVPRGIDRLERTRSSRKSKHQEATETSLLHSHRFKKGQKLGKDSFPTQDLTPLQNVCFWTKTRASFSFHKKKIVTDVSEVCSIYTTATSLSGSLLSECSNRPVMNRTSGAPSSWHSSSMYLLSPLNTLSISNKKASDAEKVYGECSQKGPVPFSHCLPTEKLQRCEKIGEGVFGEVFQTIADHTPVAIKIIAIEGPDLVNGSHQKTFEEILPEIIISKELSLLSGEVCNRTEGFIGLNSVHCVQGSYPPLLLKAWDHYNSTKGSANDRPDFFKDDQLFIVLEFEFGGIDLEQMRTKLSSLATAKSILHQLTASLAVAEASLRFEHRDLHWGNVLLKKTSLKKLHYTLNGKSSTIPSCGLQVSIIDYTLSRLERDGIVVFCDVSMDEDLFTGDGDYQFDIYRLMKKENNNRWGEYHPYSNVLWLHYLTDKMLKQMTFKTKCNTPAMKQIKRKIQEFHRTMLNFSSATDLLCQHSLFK

Lyn(m) = Lyn(m) (Mus musculus, UniProt P25911)
Axl(h) = target: T3, Axl(h) (Homo sapiens, UniProt P30530)
T3 sequence (P30530 26-894): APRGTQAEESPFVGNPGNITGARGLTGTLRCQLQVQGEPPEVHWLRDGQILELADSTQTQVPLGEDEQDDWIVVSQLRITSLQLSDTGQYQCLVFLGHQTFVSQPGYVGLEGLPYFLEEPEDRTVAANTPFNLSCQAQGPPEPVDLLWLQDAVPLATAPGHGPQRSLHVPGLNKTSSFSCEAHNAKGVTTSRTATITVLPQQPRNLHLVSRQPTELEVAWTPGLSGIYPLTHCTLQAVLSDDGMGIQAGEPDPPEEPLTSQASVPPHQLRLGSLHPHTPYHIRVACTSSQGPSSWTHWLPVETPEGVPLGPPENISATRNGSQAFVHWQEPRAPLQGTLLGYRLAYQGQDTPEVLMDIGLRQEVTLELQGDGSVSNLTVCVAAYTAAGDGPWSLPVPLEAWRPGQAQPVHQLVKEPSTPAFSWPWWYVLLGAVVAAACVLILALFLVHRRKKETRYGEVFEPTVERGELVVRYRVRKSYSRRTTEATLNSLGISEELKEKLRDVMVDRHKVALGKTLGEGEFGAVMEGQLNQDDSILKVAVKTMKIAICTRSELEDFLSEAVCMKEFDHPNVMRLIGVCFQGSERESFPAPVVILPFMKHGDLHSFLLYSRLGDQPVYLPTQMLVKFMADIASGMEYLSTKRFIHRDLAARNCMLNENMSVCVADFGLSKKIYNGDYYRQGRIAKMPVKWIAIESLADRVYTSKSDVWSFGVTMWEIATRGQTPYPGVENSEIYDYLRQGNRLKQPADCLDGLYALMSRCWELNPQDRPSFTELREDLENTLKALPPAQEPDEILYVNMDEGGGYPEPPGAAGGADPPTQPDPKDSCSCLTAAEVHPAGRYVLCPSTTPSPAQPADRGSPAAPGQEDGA

Ron(h) = Ron(h) (Homo sapiens, UniProt Q04912)
ACK1(h) = ACK1(h) (Homo sapiens, UniProt Q07912)
ACK1(h), sequence (Q07912 whole entry): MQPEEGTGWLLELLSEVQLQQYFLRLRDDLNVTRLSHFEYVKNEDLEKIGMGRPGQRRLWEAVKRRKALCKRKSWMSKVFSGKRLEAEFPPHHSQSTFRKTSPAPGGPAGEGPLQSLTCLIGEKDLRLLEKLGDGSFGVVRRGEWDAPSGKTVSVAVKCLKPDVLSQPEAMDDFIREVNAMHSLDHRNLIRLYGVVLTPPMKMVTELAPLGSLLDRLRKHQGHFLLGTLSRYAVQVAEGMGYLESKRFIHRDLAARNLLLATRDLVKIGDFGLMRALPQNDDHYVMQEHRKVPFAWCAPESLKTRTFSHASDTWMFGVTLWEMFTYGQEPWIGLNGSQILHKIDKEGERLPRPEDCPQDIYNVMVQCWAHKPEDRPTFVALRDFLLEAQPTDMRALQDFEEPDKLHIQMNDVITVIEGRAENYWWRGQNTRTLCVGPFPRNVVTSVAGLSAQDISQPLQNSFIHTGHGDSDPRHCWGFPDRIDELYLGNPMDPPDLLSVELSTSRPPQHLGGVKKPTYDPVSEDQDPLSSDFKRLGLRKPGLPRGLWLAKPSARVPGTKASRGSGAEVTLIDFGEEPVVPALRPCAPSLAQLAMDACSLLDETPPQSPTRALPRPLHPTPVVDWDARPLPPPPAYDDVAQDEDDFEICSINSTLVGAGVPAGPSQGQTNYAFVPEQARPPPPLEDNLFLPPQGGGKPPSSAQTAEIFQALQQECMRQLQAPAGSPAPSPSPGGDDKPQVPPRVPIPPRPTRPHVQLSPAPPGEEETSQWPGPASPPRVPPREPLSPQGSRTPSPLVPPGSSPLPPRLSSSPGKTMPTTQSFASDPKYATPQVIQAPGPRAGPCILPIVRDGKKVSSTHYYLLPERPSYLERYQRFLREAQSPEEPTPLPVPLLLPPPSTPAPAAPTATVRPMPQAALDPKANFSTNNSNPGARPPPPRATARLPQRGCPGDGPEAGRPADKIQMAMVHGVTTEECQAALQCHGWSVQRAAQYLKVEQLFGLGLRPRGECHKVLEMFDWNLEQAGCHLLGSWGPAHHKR

Lyn(m), sequence (P25911 whole entry): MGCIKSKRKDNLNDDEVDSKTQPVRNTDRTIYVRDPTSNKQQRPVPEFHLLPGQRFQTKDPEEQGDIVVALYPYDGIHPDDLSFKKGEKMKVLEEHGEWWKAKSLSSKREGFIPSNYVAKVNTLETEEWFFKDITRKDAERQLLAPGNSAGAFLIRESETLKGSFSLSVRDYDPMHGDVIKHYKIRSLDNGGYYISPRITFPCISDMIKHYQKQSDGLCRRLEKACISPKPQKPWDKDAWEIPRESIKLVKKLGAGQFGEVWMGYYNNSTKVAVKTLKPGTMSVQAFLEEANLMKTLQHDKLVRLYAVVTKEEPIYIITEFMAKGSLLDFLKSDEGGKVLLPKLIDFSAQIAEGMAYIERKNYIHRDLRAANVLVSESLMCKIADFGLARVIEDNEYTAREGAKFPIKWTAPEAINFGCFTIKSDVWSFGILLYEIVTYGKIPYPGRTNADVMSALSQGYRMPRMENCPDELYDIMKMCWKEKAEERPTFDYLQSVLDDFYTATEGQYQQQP
Ron(h), sequence (Q04912 25-1400): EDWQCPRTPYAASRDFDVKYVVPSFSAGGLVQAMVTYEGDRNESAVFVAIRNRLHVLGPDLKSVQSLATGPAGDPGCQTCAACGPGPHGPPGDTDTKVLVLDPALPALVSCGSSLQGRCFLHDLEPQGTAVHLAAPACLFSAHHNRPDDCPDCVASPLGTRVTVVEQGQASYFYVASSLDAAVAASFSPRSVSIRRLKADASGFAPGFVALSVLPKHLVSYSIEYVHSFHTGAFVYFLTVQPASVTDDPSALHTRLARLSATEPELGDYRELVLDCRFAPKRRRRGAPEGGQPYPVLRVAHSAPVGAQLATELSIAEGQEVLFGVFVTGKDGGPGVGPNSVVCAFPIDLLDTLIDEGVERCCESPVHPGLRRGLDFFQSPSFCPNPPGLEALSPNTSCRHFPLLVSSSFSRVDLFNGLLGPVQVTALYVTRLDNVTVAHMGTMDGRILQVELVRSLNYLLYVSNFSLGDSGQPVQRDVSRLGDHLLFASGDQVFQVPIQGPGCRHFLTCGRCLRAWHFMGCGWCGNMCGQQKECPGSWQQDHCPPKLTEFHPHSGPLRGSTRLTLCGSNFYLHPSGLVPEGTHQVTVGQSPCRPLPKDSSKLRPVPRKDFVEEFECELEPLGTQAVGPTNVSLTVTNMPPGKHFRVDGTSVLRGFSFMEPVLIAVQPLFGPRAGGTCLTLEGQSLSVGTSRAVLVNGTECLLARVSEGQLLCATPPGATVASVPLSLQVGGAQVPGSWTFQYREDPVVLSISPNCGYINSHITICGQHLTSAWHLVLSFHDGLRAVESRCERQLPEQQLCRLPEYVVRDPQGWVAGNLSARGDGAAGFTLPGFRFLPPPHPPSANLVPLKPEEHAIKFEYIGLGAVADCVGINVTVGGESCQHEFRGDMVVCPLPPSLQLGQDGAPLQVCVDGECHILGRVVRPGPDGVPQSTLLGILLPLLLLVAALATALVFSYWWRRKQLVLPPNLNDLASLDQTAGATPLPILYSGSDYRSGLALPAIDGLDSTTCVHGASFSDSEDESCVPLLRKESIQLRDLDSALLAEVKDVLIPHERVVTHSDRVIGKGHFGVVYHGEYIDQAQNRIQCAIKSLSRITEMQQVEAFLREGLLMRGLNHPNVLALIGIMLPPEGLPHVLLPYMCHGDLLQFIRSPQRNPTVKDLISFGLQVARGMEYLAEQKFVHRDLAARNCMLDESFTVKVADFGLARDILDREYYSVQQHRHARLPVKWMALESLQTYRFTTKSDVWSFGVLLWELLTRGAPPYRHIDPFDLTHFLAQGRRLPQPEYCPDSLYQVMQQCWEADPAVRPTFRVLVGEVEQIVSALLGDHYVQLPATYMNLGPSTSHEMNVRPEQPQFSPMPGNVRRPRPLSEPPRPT

With CC(C)CCC(=O)[C@]1(O)C(O)=C(C(=O)C(C)C)C(=O)[C@H]1CCC(C)C [TH2, tetrahydroiso-cohumulone] the kinase inhibition (ARK5(h); 1 μg/ml) was 103% of control, the kinase inhibition (ARK5(h); 5 μg/ml) was 104% of control and the kinase inhibition (ARK5(h); 25 μg/ml) was 99% of control. The kinase inhibition (ARK5(h); 50 μg/ml) was 77% of control, the kinase inhibition (ARK5(h); 100 μg/ml) was 74% of control and the kinase inhibition (Haspin(h); 1 μg/ml) was 105% of control. For the same compound, the kinase inhibition (Haspin(h); 5 μg/ml) was 95% of control, the kinase inhibition (Haspin(h); 25 μg/ml) was 90% of control and the kinase inhibition (Haspin(h); 50 μg/ml) was 76% of control. For the same compound, the kinase inhibition (Haspin(h); 100 μg/ml) was 49% of control, the kinase inhibition (Lyn(m); 1 μg/ml) was 116% of control and the kinase inhibition (Lyn(m); 5 μg/ml) was 110% of control. For the same compound, the kinase inhibition (Lyn(m); 25 μg/ml) was 76% of control, the kinase inhibition (Lyn(m); 50 μg/ml) was 58% of control and the kinase inhibition (Lyn(m); 100 μg/ml) was 68% of control. The kinase inhibition (Axl(h); 1 μg/ml) was 106% of control, the kinase inhibition (Axl(h); 5 μg/ml) was 110% of control and the kinase inhibition (Axl(h); 25 μg/ml) was 100% of control. For the same compound, the kinase inhibition (Axl(h); 50 μg/ml) was 86% of control, the kinase inhibition (Axl(h); 100 μg/ml) was 65% of control and the kinase inhibition (Ron(h); 1 μg/ml) was 123% of control. For the same compound, the kinase inhibition (Ron(h); 5 μg/ml) was 124% of control, the kinase inhibition (Ron(h); 25 μg/ml) was 123% of control and the kinase inhibition (Ron(h); 50 μg/ml) was 116% of control. For the same compound, the kinase inhibition (Ron(h); 100 μg/ml) was 94% of control, the kinase inhibition (ACK1(h); 1 μg/ml) was 117% of control and the kinase inhibition (ACK1(h); 5 μg/ml) was 124% of control. The kinase inhibition (ACK1(h); 25 μg/ml) was 97% of control, the kinase inhibition (ACK1(h); 50 μg/ml) was 86% of control and the kinase inhibition (ACK1(h); 100 μg/ml) was 81% of control.
